Reference: patent publication US20230129359A1, “MUSCARINIC RECEPTOR 4 ANTAGONISTS AND METHODS OF USE” (Neurocrine Biosciences, Inc., priority 2020, published 2023)

What follows are compounds tested against T1, human M4 receptor (Homo sapiens, UniProt P08173) (assay: Radioligand ([3H]N-methylscopolamine) binding assay, membranes from CHO cells expressing human M4 receptor). Details: Ki against human M4 receptor; membranes from CHO cells; tritiated N-methylscopolamine 1.5 nM; read-out: K.
T1 construct: expressed in transfected cells; host or cells: CHO cells
T1 sequence (P08173 1-479): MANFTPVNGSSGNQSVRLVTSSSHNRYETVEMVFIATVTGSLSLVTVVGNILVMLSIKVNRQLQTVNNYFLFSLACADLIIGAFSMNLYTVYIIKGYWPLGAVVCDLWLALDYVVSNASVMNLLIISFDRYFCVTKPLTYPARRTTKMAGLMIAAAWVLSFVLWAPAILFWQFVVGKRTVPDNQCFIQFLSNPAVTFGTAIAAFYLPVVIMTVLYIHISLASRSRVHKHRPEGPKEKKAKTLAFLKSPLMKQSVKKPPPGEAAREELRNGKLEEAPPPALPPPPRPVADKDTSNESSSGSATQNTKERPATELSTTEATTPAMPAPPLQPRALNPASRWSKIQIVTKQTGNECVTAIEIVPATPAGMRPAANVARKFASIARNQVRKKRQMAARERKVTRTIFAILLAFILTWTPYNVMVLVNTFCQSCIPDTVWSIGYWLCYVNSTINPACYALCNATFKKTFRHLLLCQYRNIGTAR
Description: Binding affinity (Ki) for the compounds was measured by inhibition of radioligand binding to membranes from CHO cells expressing human M4 receptor. Membranes were prepared by nitrogen cavitation and differential centrifugation as previously described (Hoare et al., Mol. Pharmacol. 2003 March; 63(3): 751-65). The radioligand employed was tritiated N-methylscopolamine, used at a concentration of 1.5 nM. A dose-response of twelve concentrations of compound was used, ranging from […]. The assay buffer was 50 mM HEPES, 100 mM NaCl, 5 mM MgCl2, 1 mM ethylenediaminetetraacetic acid, pH-adjusted to pH 7.4. Membranes, radioligand and compound were incubated together for 90 minutes at 37° C., in a total volume of 150 μL in a 96-well plate. Receptor-bound radioligand was then collected by harvesting the assay over glass fiber filters pretreated with polyethylenimine to trap the cell membranes, using rapid vacuum filtration. Harvesting and radioactivity counting was conducted as previously described (see, e.g., Hoare et al., Mol. Pharmacol. 2003 63(3):751-65); Erratum at Mol. Pharmacol. 2005 July; 68(1): 260).

| Ki [µM] | SMILES |
| --- | --- |
| < 0.01 | C[C@@H]1CN(c2ncc(C(F)(F)F)c(N)n2)C[C@H](C)N1C(=O)NC1CC2(C1)CN(Cc1ccccc1)C2 [Compound 248, (2R,6S)-4-[4-amino-5-(trifluoromethyl)pyrimidin-2-yl]-N-{2-benzyl-2-azaspiro[3.3]heptan-6-yl}-2,6-dimethylpiperazine-1-carboxamide] |
| < 0.01 | C[C@@H]1CN(c2ncc(C(F)(F)F)c(N)n2)C[C@H](C)N1C(=O)OC1CC2(C1)CN(Cc1ccccc1)C2 [Compound 463, 2-benzyl-2-azaspiro[3.3]heptan-6-yl (2R,6S)-4-[4-amino-5-(trifluoromethyl)pyrimidin-2-yl]-2,6-dimethylpiperazine-1-carboxylate] |
| 0.01 to 0.1 | C[C@@H]1CN(c2ncc(C(F)(F)F)cn2)C[C@H](C)N1C(=O)NC1CC2(C1)CN(Cc1ccc[nH]1)C2 [Compound 309, (2R,6S)-2,6-dimethyl-N-[2-(1H-pyrrol-2-ylmethyl)-2-azaspiro[3.3]heptan-6-yl]-4-[5-(trifluoromethyl)pyrimidin-2-yl]piperazine-1-carboxamide] |
| 0.01 to 0.1 | C[C@@H]1CN(c2cnc3ccccc3n2)C[C@H](C)N1C(=O)NC1CC2(C1)CN(Cc1ccccc1)C2 [Compound 214, (2R,6S)-N-{2-benzyl-2-azaspiro[3.3]heptan-6-yl}-2,6-dimethyl-4-(quinoxalin-2-yl)piperazine-1-carboxamide] |
| 0.01 to 0.1 | COc1ccc2nc(N3C[C@@H](C)N(C(=O)OC4CC5(C4)CN(Cc4ccc(F)cc4)C5)C[C@@H]3C)cnc2c1 [Compound 396, 2-[(4-fluorophenyl)methyl]-2-azaspiro[3.3]heptan-6-yl (2R,5S)-4-(6-methoxyquinoxalin-2-yl)-2,5-dimethylpiperazine-1-carboxylate] |
| 0.01 to 0.1 | C[C@@H]1CN(c2ncc3ccccc3n2)CCN1C(=O)NC1CC2(C1)CN(Cc1ccccc1)C2 [Compound 213, (2R)-N-{2-benzyl-2-azaspiro[3.3]heptan-6-yl}-2-methyl-4-(quinazolin-2-yl)piperazine-1-carboxamide] |
| 0.1 to 1 | C[C@@H]1CN(c2ncc(C(F)(F)F)cn2)C[C@@H](C)N1C(=O)OC1CC2(C1)CN(CCC(C)(C)C)C2 [Compound 145, 2-(3,3-dimethylbutyl)-2-azaspiro[3.3]heptan-6-yl (2R,6R)-2,6-dimethyl-4-[5-(trifluoromethyl)pyrimidin-2-yl]piperazine-1-carboxylate] |
| < 0.01 | C[C@@H]1CN(c2ncc(C(F)(F)F)cn2)C[C@H](C)N1C(=O)NC1CC2(C1)CN(Cc1ccc3occc3c1)C2 [Compound 298, (2R,6S)-N-[2-(1-benzofuran-5-ylmethyl)-2-azaspiro[3.3]heptan-6-yl]-2,6-dimethyl-4-[5-(trifluoromethyl)pyrimidin-2-yl]piperazine-1-carboxamide] |
| 0.01 to 0.1 | CSc1nc(N2C[C@@H](C)N(C(=O)OC3CC4(C3)CN(Cc3ccccc3)C4)[C@H](C)C2)ncc1Br [Compound 170, 2-benzyl-2-azaspiro[3.3]heptan-6-yl (2R,6R)-4-[5-bromo-4-(methylsulfanyl)pyrimidin-2-yl]-2,6-dimethylpiperazine-1-carboxylate] |
| 0.1 to 1 | CC(=O)Nc1ccc(CN2CC3(CC(NC(=O)N4[C@H](C)CN(c5ncc(C(F)(F)F)cn5)C[C@@H]4C)C3)C2)cc1 [Compound 321, (2R,6S)-N-{2-[(4-acetamidophenyl)methyl]-2-azaspiro[3.3]heptan-6-yl}-2,6-dimethyl-4-[5-(trifluoromethyl)pyrimidin-2-yl]piperazine-1-carboxamide] |
| < 0.01 | C[C@@H]1CN(c2ncc(C3CC3)cn2)C[C@H](C)N1C(=O)OC1CC2(C1)CN(Cc1ccccc1)C2 [Compound 506, 2-benzyl-2-azaspiro[3.3]heptan-6-yl (2R,6S)-4-(5-cyclopropylpyrimidin-2-yl)-2,6-dimethylpiperazine-1-carboxylate] |
| < 0.01 | C[C@@H]1CN(c2ncc(C(F)(F)F)cc2F)C[C@H](C)N1C(=O)OC1CC2(C1)CN(Cc1ccccc1)C2 [Compound 277, 2-benzyl-2-azaspiro[3.3]heptan-6-yl (2R,6S)-4-[3-fluoro-5-(trifluoromethyl)pyridin-2-yl]-2,6-dimethylpiperazine-1-carboxylate] |
| < 0.01 | Cc1ccc(CN2CC3(CC(NC(=O)N4[C@H](C)CN(c5ncc(C(F)(F)F)cn5)C[C@@H]4C)C3)C2)s1 [Compound 339, (2R,6S)-2,6-dimethyl-N-{2-[(5-methylthiophen-2-yl)methyl]-2-azaspiro[3.3]heptan-6-yl}-4-[5-(trifluoromethyl)pyrimidin-2-yl]piperazine-1-carboxamide] |
| < 0.01 | Cc1ccsc1CN1CC2(CC(NC(=O)N3[C@H](C)CN(c4ncc(C(F)(F)F)cn4)C[C@@H]3C)C2)C1 [Compound 338, (2R,6S)-2,6-dimethyl-N-{2-[(3-methylthiophen-2-yl)methyl]-2-azaspiro[3.3]heptan-6-yl}-4-[5-(trifluoromethyl)pyrimidin-2-yl]piperazine-1-carboxamide] |
| < 0.01 | C[C@@H]1CN(c2ncc(C(F)(F)F)cn2)C[C@H](C)N1C(=O)OC1CC2(C1)CN(CC1CC1(C)C)C2 (stereo partly drawn) [Compound 153, 2-[(2,2-dimethylcyclopropyl)methyl]-2-azaspiro[3.3]heptan-6-yl (2R,6S)-2,6-dimethyl-4-[5-(trifluoromethyl)pyrimidin-2-yl]piperazine-1-carboxylate] |
| 0.1 to 1 | C[C@@H]1CN(c2ncc(C(F)(F)F)cn2)C[C@@H](C)N1C(=O)OC1CC2(C1)CN(CC(C)(C)C)C2 [Compound 146, 2-(2,2-dimethylpropyl)-2-azaspiro[3.3]heptan-6-yl (2R,6R)-2,6-dimethyl-4-[5-(trifluoromethyl)pyrimidin-2-yl]piperazine-1-carboxylate] |
| < 0.01 | C[C@@H]1CN(c2nc3ccc(C(F)(F)F)cc3s2)[C@@H](C)CN1C(=O)OC1CC2(C1)CN(Cc1ccc(F)cc1)C2 [Compound 386, 2-[(4-fluorophenyl)methyl]-2-azaspiro[3.3]heptan-6-yl (2R,5S)-2,5-dimethyl-4-[6-(trifluoromethyl)-1,3-benzothiazol-2-yl]piperazine-1-carboxylate] |
| 0.01 to 0.1 | C[C@@H]1CN(c2ncc(C(F)(F)F)cn2)CCN1C(=O)OC1(C(F)F)CC2(CN(Cc3ccccc3)C2)C1 [Compound 349, 2-benzyl-6-(difluoromethyl)-2-azaspiro[3.3]heptan-6-yl (2R)-2-methyl-4-[5-(trifluoromethyl)pyrimidin-2-yl]piperazine-1-carboxylate] |
| 0.01 to 0.1 | C[C@@H]1CN(c2cnc(C(F)(F)F)cn2)CCN1C(=O)NC1CC2(C1)CN(Cc1ccc(Cl)cc1)C2 [Compound 261, (2R)-N-{2-[(4-chlorophenyl)methyl]-2-azaspiro[3.3]heptan-6-yl}-2-methyl-4-[5-(trifluoromethyl)pyrazin-2-yl]piperazine-1-carboxamide] |
| 0.1 to 1 | C[C@@H]1CN(c2cnc(C(F)(F)F)cn2)C[C@@H](C)N1C(=O)NC1CC2(C1)CN(Cc1ccccc1)C2 [Compound 64, (2R,6R)-N-{2-benzyl-2-azaspiro[3.3]heptan-6-yl}-2,6-dimethyl-4-[5-(trifluoromethyl)pyrazin-2-yl]piperazine-1-carboxamide] |
| 0.1 to 1 | N#Cc1cc(C(F)(F)F)ccc1N1CCN(C(=O)OC2CC3(C2)CN(Cc2ccccc2)C3)CC1 [Compound 126, 2-benzyl-2-azaspiro[3.3]heptan-6-yl 4-[2-cyano-4-(trifluoromethyl)phenyl]pipera-zine-1-carboxylate] |
| 0.01 to 0.1 | C[C@@H]1CN(c2ncc(C#N)cn2)[C@@H](C)CN1C(=O)OC1CC2(C1)CN(Cc1ccc(F)cc1)C2 [Compound 473, 2-[(4-fluorophenyl)methyl]-2-azaspiro[3.3]heptan-6-yl (2R,5S)-4-(5-cyanopyrimidin-2-yl)-2,5-dimethylpiperazine-1-carboxylate] |
| 0.01 to 0.1 | C[C@@H]1CN(c2nc3cc(F)ccc3o2)C[C@H](C)N1C(=O)OC1CC2(C1)CN(Cc1ccccc1)C2 [Compound 441, 2-benzyl-2-azaspiro[3.3]heptan-6-yl (2R,6S)-4-(5-fluoro-1,3-benzoxazol-2-yl)-2,6-dimethylpiperazine-1-carboxylate] |
| 0.01 to 0.1 | CSc1nc(N2C[C@@H](C)N(C(=O)OC3CC4(C3)CN(Cc3ccccc3)C4)[C@@H](C)C2)ncc1Br [Compound 169, 2-benzyl-2-azaspiro[3.3]heptan-6-yl (2R,6S)-4-[5-bromo-4-(methylsulfanyl)pyrimidin-2-yl]-2,6-dimethylpiperazine-1-carboxylate] |
| 0.01 to 0.1 | C[C@@H]1CN(c2cnc3cc(C(F)(F)F)ccc3n2)C[C@H](C)N1C(=O)NC1CC2(C1)CN(Cc1ccccc1)C2 [Compound 235, (2R,6S)-N-{2-benzyl-2-azaspiro[3.3]heptan-6-yl}-2,6-dimethyl-4-[6-(trifluoromethyl)quinoxalin-2-yl]piperazine-1-carboxamide] |
